Data taken from PMC9356039, “Multifunctional synthetic nano-chaperone for peptide folding and intracellular delivery” (Nature Communications, 2022).

How the values were obtained:
HepG2 cells [1] = test: CCK-8 cell viability; type: cell-based, human; details: 24 h, 50
Procedure: (§1) Human liver cancer cell line HepG2 were grown in DMEM containing 10% FBS and 1% penicillin/streptomycin at 37 °C in a humidified atmosphere of 5% CO2. HepG2 cells (1.2 × 10^5 cells/well) were seeded in a 4-well glass plate for 24 h. Then, SNCPs@st-p53pep (0.02 mg/mL) and st-p53pep alone (2 μM) were added to each well in a serum-free medium for 4 h. After incubation, the cells were carefully rinsed with PBS, and the medium was replaced with a serum-containing fresh medium. After the nucleus was stained with Hoechst 33342 staining kit by manufacturer’s protocol, bright field and fluorescence images were obtained by using a DeltaVision Elite Microscopy System (GE Healthcare, USA). To observe the distribution of SNCP8 and st-p53pep in cells, TAMRA-labeled SNCP8@FAM-labeled st-p53pep (0.25 mg/mL) was treated in the same manner instead of SNCP8@st-p53pep. And then, the Mander’s overlap coefficient (MOC) was calculated in the Image J program (ver. 1.52a) via the JACoP plugin to identify co-localization between fluorescence signals over time. […] The cell viability was determined using cell counting kit-8 (CCK-8) assay by monitoring absorbance at 450 and 670 nm wavelength measured using a microplate reader (Molecular Devices, Inc., USA). The EC50 values of SNCPs@st-p53pep were determined by the logistic curve-fitting method with Origin (OriginLab, USA).

p53 in HepG2 cells = test: Western blot, p53 protein level; type: cell-based, human
Procedure: (§2) Cells were lysed with Pro-PREP (IntronBio, Korea) according to the manufacturer’s protocol. The samples were centrifuged at 2000 × g and 4 °C for 15 min. The supernatant was collected to a 1.5 mL ep-tube and stored at −80 °C. After protein quantification using Pierce^TM BCA assay kit (Thermo Fisher Scientific, USA), the same amount of protein was diluted in water containing 5×loading buffer (Biosesang, Korea) and loaded on SDS-PAGE gel (Bio-rad, USA). After electrophoresis in Tris-Glycine SDS buffer at 80 V for 120 min, proteins in a gel were transferred to a nitrocellulose membrane (0.45 μm, Bio-rad, USA) in 1× Tris-Glycine Native Buffer (GenDEPOT, Korea) with 10% methanol at 90 V, and 4 °C for 90 min under stirring condition. The membrane was blocked with 5% milk to inhibit non-specific binding and immersed overnight at 4 °C in the presence of primary antibodies; GAPDH (1:2000, Abcam, USA), p53 (1:1000, Cell signaling, USA), MDM2 (1:1000, Cell signaling, USA), Bcl2 (1:1000, Cell signaling, USA) and CytC (1:1000, Cell signaling, USA). Anti-rabbit goat pAb, horseradish peroxidase (HRP)-linked antibody (1:5000, Abcam, USA) was used as a secondary antibody and the membrane was incubated for 1 h. After the reaction with the detection agent West Pico PLUS (Thermo Fisher Scientific, USA), bands of protein were monitored by a ImageQuant^TM LAS 4000 mini (GE Healthcare, USA). […]

MDM2 in HepG2 cells = test: Western blot, MDM2 protein level; type: cell-based, human
Procedure: as §2

CytC in HepG2 cells = test: Western blot, cytochrome c protein level; type: cell-based, human
Procedure: as §2

Bcl2 in HepG2 cells = test: Western blot, Bcl2 protein level; type: cell-based, human
Procedure: as §2

[2] = system: human liver cancer (HepG2) xenograft; test: Tumor growth inhibition, intratumoral injection; type: in vivo, Balb/c male nude mice; details: HepG2 xenograft mice; intratumoral every 3 days, 14 days; 50 mg SNCP8/kg, 5 μmole st-p53pep/kg; n = 3; versus untreated control
Procedure: All of animal experiments were conducted in accordance with the Institutional Animal Care and Use Committees (IACUC) of Seoul National University. 5-week old Balb/c male nude mice were purchased (ORIENT BIO, Korea). Mice were housed in an environmentally controlled room (23 °C, with 55 ± 5% humidity and 12 h / 12 h light–dark cycle). To prepare tumor-bearing mice, a suspension of the HepG2 cells (6 × 10^6 cells) in 100 µL of sterilized PBS was subcutaneously injected (n = 3, biologically independent animals). Tumor-bearing mice were reared until the tumor volumes reach ~50 mm^3 and used for experiments. […] The changes in tumor volume and body weight were monitored over 14 days. Tumor volumes were calculated by using the equation of 1/2 × length × (width)^2, where the length and width are the longest and shortest diameters (mm) of the tumor, respectively. […] Bright field and fluorescence images from mice were obtained overtime for 3 days by using fluorescence in vivo imaging system, FoBI (Neoscience, Korea). The relative intensity of FAM fluorescence attached to st-p53pep was calculated by using the region of interest (ROI) analysis. The half-life of FAM fluorescence decay was determined by exponential curve fitting method with Origin 2017 (OriginLab, USA).

[3] = Whole-body FAM fluorescence decay in tumor after intratumoral injection; type: in vivo, Balb/c male nude mice; details: for rel. fluor. Int. (FAM): tumor ROI
Procedure: All of animal experiments were conducted in accordance with the Institutional Animal Care and Use Committees (IACUC) of Seoul National University. 5-week old Balb/c male nude mice were purchased (ORIENT BIO, Korea). Mice were housed in an environmentally controlled room (23 °C, with 55 ± 5% humidity and 12 h / 12 h light–dark cycle). To prepare tumor-bearing mice, a suspension of the HepG2 cells (6 × 10^6 cells) in 100 µL of sterilized PBS was subcutaneously injected (n = 3, biologically independent animals). Tumor-bearing mice were reared until the tumor volumes reach ~50 mm^3 and used for experiments. To investigate tumor growth inhibition efficiency, SNCP8@st-p53pep, SNCP8, and st-p53pep alone in 100 μL of PBS solution (50 mg SNCP8/kg, 5 μmole st-p53pep/kg) were directly injected into the tumor. The same volume of PBS solution was also directly treated into the tumor as a control. Intratumoral injection was performed at 3 day intervals. The changes in tumor volume and body weight were monitored over 14 days. Tumor volumes were calculated by using the equation of 1/2 × length × (width)^2, where the length and width are the longest and shortest diameters (mm) of the tumor, respectively. The relative tumor volume was derived from comparing it with the initial tumor volume. To observe sustainability and tumor exposure of st-p53pep in vivo, we used nude mice with HeLa and HepG2 cell xenografts prepared in the same manner as the tumor growth inhibition experiment. TAMRA-labeled SNCP8@ FAM-labeled st-p53pep was treated in the same manner as the tumor growth inhibition experiment instead of SNCP8@st-p53pep. Bright field and fluorescence images from mice were obtained overtime for 3 days by using fluorescence in vivo imaging system, FoBI (Neoscience, Korea). The relative intensity of FAM fluorescence attached to st-p53pep was calculated by using the region of interest (ROI) analysis. The half-life of FAM fluorescence decay was determined by exponential curve fitting method with Origin 2017 (OriginLab, USA).

HepG2 cells [4] = test: Cellular uptake and intracellular distribution, fluorescence microscopy; type: cell-based, human; details: SNCPs@st-p53pep 0.02 mg/mL or st-p53pep 2 μM, serum-free medium 4 h
Procedure: as §1

[5] = Water solubility (in words); type: physicochemical

Structure (SMILES): CC(C)C[C@@H]1NC(=O)[C@H](CC(C)C)NC(=O)[C@H](CCCNC(=N)N)NC(=O)[C@H](Cc2c[nH]c3ccccc23)NC(=O)[C@H](CC(C)C)NC(=O)[C@H](CC(N)=O)NC(=O)[C@H](NC(=O)[C@H](Cc2ccccc2)NC(=O)[C@@H](NC(=O)[C@H](CCC(N)=O)NC(=O)[C@H](CCC(N)=O)NC(=O)[C@H](CO)NC(=O)[C@H](CCC(N)=O)NC(=O)CNC(=O)CNC(=O)c2ccc3c(c2)C(=O)OC32c3ccc(O)cc3Oc3cc(O)ccc32)[C@@H](C)O)CCCCNC(=O)CCc2cn(nn2)CCC[C@@H](C(=O)N[C@@H](CCC(N)=O)C(=O)N[C@@H](CC(N)=O)C(N)=O)NC1=O [st-p53pep]
- cell viability at corresponding dose (HepG2 cells [1]): more than 80%
- p53 level relative to Control (p53 in HepG2 cells; /GAPDH, Control = 1): 1.126
- p53 rel. (/GAPDH) (p53 in HepG2 cells; intensity divided by GAPDH): 0.7745
- MDM2 level relative to Control (MDM2 in HepG2 cells; /GAPDH, Control = 1): 0.8607
- MDM2 rel. (/GAPDH) (MDM2 in HepG2 cells; intensity divided by GAPDH): 0.7522
- CytC level relative to Control (CytC in HepG2 cells; /GAPDH, Control = 1): 1.304
- CytC rel. (/GAPDH) (CytC in HepG2 cells; intensity divided by GAPDH): 0.81
- Bcl2 level relative to Control (Bcl2 in HepG2 cells; /GAPDH, Control = 1): 1.005
- Bcl2 rel. (/GAPDH) (Bcl2 in HepG2 cells; intensity divided by GAPDH): 0.9585
- growth of tumor volume (in words) [2]: no notable difference
- rel. fluor. Int. (FAM) ([3]; 0 hours after intratumoral injection): 70000
- rel. fluor. Int. (FAM) ([3]; 6 hours after intratumoral injection): 21050
- rel. fluor. Int. (FAM) ([3]; 12 hours after intratumoral injection): 7081
- rel. fluor. Int. (FAM) ([3]; 24 hours after intratumoral injection): 501
- rel. fluor. Int. (FAM) ([3]; 48 hours after intratumoral injection): 1
- rel. fluor. Int. (FAM) ([3]; 72 hours after intratumoral injection): 1
- time until green fluorescence signal in tumor disappeared ([3]; tumor-bearing mouse, intratumoral injection): ≤ 24 h
- half-life (t1/2) of green (FAM) fluorescence decay in tumor ([3]; tumor-xenograft mice, intratumoral injection, ROI analysis of whole-body image, exponential fit): 3.5 h
- cellular uptake: green FAM fluorescence in cells (in words) (HepG2 cells [4]): No fluorescence
- solubility in water (in words) [5]: poor water solubility
